One data set has as its target Tubulin (Sus scrofa) (UniProt P02554+P02550). Kind of data set: Inhibition of porcine tubulin polymerization assessed as inhibition of microtubule polymerization at 15 to 30 uM measured after 1 hr. In kind it is protein assay. The following applies: dose 15-30 µM, DDE = dose-dependent effect.
Data set [1] has as its system Rat1. Kind of data set: Antitumor activity at rat Rat1 cells expressing myr-p110alpha xenografted in athymic nude mouse assessed as T/C ratio at 30 mg/kg, po bid measured after 14 to 22 days. The data set is classed as functional. The following applies: time 14-22 day.
Data set [2] in a line: Brain to blood ratio in OF1 mouse at 1 mg/kg, iv measured at 1 hr post dose by LC-MS/MS analysis. The following applies: brain and blood, read-out: BBR. In kind it is ADME, organism-based.
The test system of data set [3] is Rat1. As to the kind of experiment: Antitumor activity at rat Rat1 cells expressing myr-p110delta xenografted in athymic nude mouse assessed as T/C ratio at 30 mg/kg, po bid measured after 7 to 15 days. The data set is classed as functional. The following applies: time 7-15 day.
A short description of data set [4]: Toxicity in athymic nude mouse xenografted with rat Rat1 cells expressing myr-p110delta assessed as drug tolerance at 20 mg/kg, po bid measured for 7 to 15 days. The data set is classed as organism-based. The following applies: in vivo, time 7-15 day.
In data set [5] the target is T1, Tubulin (Homo sapiens) (UniProt P68371+Q9H4B7+P0DPH7+P68366+Q13509+Q71U36+P04350+Q3ZCM7+P07437+P68363+Q9BQE3+Q6PEY2+Q13885+Q9BVA1+Q9BUF5). As to the kind of experiment: Binding affinity to tubulin in human A2058 cells assessed as condensed DNA score at 5 uM measured after 24 hrs by DiffQuick staining based microscopic analysis. In kind it is cell-based.
The test system of data set [6] is Rat1. Kind of data set: Antitumor activity at rat Rat1 cells expressing myr-p110alpha xenografted in athymic nude mouse assessed as T/C ratio at 20 mg/kg, po bid measured after 14 to 22 days. In kind it is functional. The following applies: time 14-22 day.
Data set [7] in a line: Toxicity in athymic nude mouse xenografted with rat Rat1 cells expressing myr-p110alpha assessed as body weight loss at 20 to 30 mg/kg, po bid measured for 7 to 15 days. The following applies: in vivo, dose lower 20 mg/kg, time lower 7 day, dose upper 30 mg/kg, time upper 15 day. In kind it is organism-based.
The test system of another data set is A2780. Kind of data set: Induction of cell cycle arrest in human A2780 cells assessed as G2/M marker expression level at 30 uM measured after 6 hr by immunofluorescence staining method. In kind it is functional, cell-based.
The test system of data set [8] is Rat1. As to the kind of experiment: Antitumor activity at rat Rat1 cells expressing myr-p110delta xenografted in athymic nude mouse assessed as T/C ratio at 20 mg/kg, po bid measured after 7 to 15 days. The following applies: time 7-15 day. In kind it is functional.
Data set [9] deals with T1, Tubulin (Homo sapiens). Kind of data set: Binding affinity to tubulin in human A2058 cells assessed as condensed DNA score at 5 uM measured after 6 hrs by DiffQuick staining based microscopic analysis. The data set is classed as cell-based.
Data set [10] in a line: Toxicity in athymic nude mouse xenografted with rat Rat1 cells expressing myr-p110delta assessed as body weight loss at 30 mg/kg, po bid measured for 7 to 15 days. The data set is classed as organism-based. The following applies: in vivo, time 7-15 day.
The nature of data set [11]: Brain to blood ratio in OF1 mouse at 1 mg/kg, iv measured at 5 mins post dose by LC-MS/MS analysis. The following applies: brain and blood, read-out: BBR. In kind it is ADME, organism-based.

Calls of active or inactive are those of the source. The calls are words filed in the database; no cut-off is given here.

Sequence of Tubulin (Sus scrofa) (P02550 whole entry, looked up): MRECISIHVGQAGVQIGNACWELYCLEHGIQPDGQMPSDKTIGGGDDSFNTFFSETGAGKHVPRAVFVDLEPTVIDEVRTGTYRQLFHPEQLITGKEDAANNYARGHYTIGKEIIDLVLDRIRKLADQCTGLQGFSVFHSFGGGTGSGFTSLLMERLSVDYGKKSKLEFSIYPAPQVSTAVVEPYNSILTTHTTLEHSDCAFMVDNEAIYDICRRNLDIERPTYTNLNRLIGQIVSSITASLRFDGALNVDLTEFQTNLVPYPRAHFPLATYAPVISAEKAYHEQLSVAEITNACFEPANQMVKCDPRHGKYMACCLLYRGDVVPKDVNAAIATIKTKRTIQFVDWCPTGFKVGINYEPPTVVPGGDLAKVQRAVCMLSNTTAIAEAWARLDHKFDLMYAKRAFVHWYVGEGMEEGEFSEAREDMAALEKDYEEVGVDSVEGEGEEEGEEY
Sequence of Tubulin (Sus scrofa) (P02554 whole entry, looked up): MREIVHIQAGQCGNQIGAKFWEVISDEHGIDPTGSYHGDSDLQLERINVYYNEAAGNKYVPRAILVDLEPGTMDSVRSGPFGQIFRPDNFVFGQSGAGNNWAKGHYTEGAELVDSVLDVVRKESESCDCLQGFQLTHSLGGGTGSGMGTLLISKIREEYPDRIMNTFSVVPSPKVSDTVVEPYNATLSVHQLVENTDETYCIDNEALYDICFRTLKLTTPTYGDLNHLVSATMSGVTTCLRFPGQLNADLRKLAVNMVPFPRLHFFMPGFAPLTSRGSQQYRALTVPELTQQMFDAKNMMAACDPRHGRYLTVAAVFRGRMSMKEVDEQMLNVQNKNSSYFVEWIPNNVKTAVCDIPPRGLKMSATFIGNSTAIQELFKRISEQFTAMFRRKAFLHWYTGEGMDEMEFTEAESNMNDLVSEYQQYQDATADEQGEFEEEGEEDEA

With `Nc1cc(C(F)(F)F)c(-c2cc(N3CCOCC3)nc(N3CCOCC3)n2)cn1` [BUPARLISIB], at Tubulin (Sus scrofa), the inhibition result was “Dde”. The T/C is reported as -0.61 in the data set on Rat1 [1], 0.12 with Rat1 [3], -0.15 in the data set with Rat1 [6] and 0.1 with Rat1 [8]. Besides, the Kp at 1 h in data set [2] was 1.74. Further, the Activity result in data set [4] was “Toxic”; at Tubulin (Homo sapiens) [5], above 12%; in data set [7], -7%; on Tubulin (Homo sapiens) [9] it was above 12%; in data set [10], -8%. The result in the data set with A2780 was Active. In addition, in [11], the Kp at 5 min was determined as 1.98.

Source of the values: ChEMBL document CHEMBL5137017, “Identification of NVP-CLR457 as an Orally Bioavailable Non-CNS-Penetrant pan-Class IA Phosphoinositol-3-Kinase Inhibitor” (J Med Chem, 2022).
